Experimental findings from ChEMBL document CHEMBL1255178, “4-methylpteridinones as orally active and selective PI3K/mTOR dual inhibitors” (Bioorg Med Chem Lett, 2010) are described below.

A word on the Ki: it is a measure of affinity in units of concentration, obtained from inhibition or displacement.

In the first assay the target is Serine/threonine-protein kinase mTOR (Homo sapiens, UniProt P42345).
On to `COc1ccc(-c2cc3c(C)nc(N)nc3n(C(C)C)c2=O)cn1`, for which the Ki worked out at 5 nM.
On the same count and under the same terms, next, `Cc1nc(N)nc2c1nc(-c1cc[nH]n1)c(=O)n2C1CCOCC1`: 0.8 nM; `Cc1nc(N)nc2c1nc(-c1ccn[nH]1)c(=O)n2C(C)C`: 6 nM; `COc1ncc(-c2nc3c(C)nc(N)nc3n(C(C)C)c2=O)cn1`: 18 nM.
`Cc1nc(N)nc2c1nc(-c1cnn[nH]1)c(=O)n2C(C)C` showed a Ki of 113 nM.
Still for that read-out and setting: next, `COc1ccc(-c2cc3c(OC)nc(N)nc3n(C(C)C)c2=O)cn1`: > 4000 nM; `COc1ccc(-c2nc3c(C)nc(N)nc3n([C@H]3CC[C@H](O)CC3)c2=O)cn1`: 6.8 nM; `Cc1ccc(-c2nc3c(C)nc(N)nc3n(C3CCOCC3)c2=O)cn1`: 5 nM.
Still for that read-out and setting: next, `Cc1ccc(-c2nc3c(C)nc(N)nc3n([C@H]3CC[C@H](OCCO)CC3)c2=O)cn1`: 5.11 nM.
Same read-out and setting: next, `Cc1ccc(-c2nc3c(C)nc(N)nc3n([C@H]3CC[C@H](O)CC3)c2=O)cn1`: 0.85 nM.

Test system in another assay: not listed separately
Description: Antitumor activity against human U87 cells xenografted in mouse at 3 mg/kg, po after 10 days. The class given is functional, U-87MG ATCC. For orientation: In xenograft studies the graft and the host belong to different species.
Consider `COc1ccc(-c2nc3c(C)nc(N)nc3n([C@H]3CC[C@H](O)CC3)c2=O)cn1`, for which the Activity came out at 11%.

Test system in the next assay: not listed separately
Description: Antitumor activity against human U87 cells xenografted in mouse at 20 mg/kg, po after 10 days. The class given is functional, U-87MG ATCC.
Take `COc1ccc(-c2nc3c(C)nc(N)nc3n([C@H]3CC[C@H](O)CC3)c2=O)cn1`: the Activity was 75%.

Test system in a further assay: not listed separately
Description: Antitumor activity against human U87 cells xenografted in mouse at 10 mg/kg, po after 10 days. The assay is classed as functional, U-87MG ATCC.
In turn, `COc1ccc(-c2nc3c(C)nc(N)nc3n([C@H]3CC[C@H](O)CC3)c2=O)cn1` yielded an Activity of 58%.
